From PubChem BioAssay (NCI)
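Grown in 96-well plates, cells were treated for 48 hours with each compound at five concentrations. Insufficient inhibition: endpoint recorded as highest concentration tested. Definition used: TGI = concentration required for complete inhibition of growth.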

Assays:
Test in all cases: NCI tumour cell line growth inhibition, 48 h
[1] = system: UO-31 renal
[2] = system: OVCAR-8 ovarian
[3] = system: HCT-15 colon
[4] = system: MDA-MB-435
[5] = system: COLO 205 colon
[6] = system: A549 NSCLC
[7] = system: IGROV1 ovarian
[8] = system: NCI-H522 lung
[9] = system: NCI-H226 lung
[10] = system: SK-OV-3 ovarian
[11] = system: HCC-2998 colon
[12] = system: SK-MEL-2 melanoma
[13] = system: HS 578T breast
[14] = system: K-562 leukemia
[15] = system: SW-620 colon
[16] = system: KM12 colon
[17] = system: LOX IMVI melanoma
[18] = system: CCRF-CEM leukemia
[19] = system: CAKI-1 renal
[20] = system: UACC-62 melanoma
[21] = system: MDA-N
[22] = system: U251 CNS
[23] = system: NCI-H23 lung
[24] = system: HT29 colon
[25] = system: DU-145 prostate
[26] = system: TK-10 renal
[27] = system: RXF 393 renal
[28] = system: OVCAR-3 ovarian
[29] = system: SR leukemia
[30] = system: NCI-H460 lung
[31] = system: BT-549 breast
[32] = system: RPMI-8226 leukemia
[33] = system: SK-MEL-28 melanoma
[34] = system: HL-60(TB) leukemia
[35] = system: OVCAR-4 ovarian
[36] = system: SF-539 CNS
[37] = system: SNB-19 CNS
[38] = system: HOP-62 NSCLC
[39] = system: EKVX NSCLC
[40] = system: MCF7 breast
[41] = system: MDA-MB-231 breast
[42] = system: MOLT-4 leukemia
[43] = system: SNB-75 CNS
[44] = system: MALME-3M melanoma
[45] = system: HCT-116 colon
[46] = system: NCI/ADR-RES ovarian
[47] = system: SF-295 CNS
[48] = system: M14 melanoma
[49] = system: SK-MEL-5 melanoma
[50] = system: 786-0 renal
[51] = system: UACC-257 melanoma
[52] = system: PC-3 prostate
[53] = system: T-47D breast
[54] = system: SF-268 CNS
[55] = system: SN12C renal
[56] = system: ACHN renal
[57] = system: OVCAR-5 ovarian
[58] = system: HOP-92 NSCLC
[59] = system: A498 renal

Compound: N#Cc1sc2c(c1OC(=O)c1ccco1)c(=O)n(-c1ccccc1)c(=S)n2-c1ccccc1
- TGI [1]: 44.1 µM
- TGI [2]: > 100 µM
- TGI [3]: 52.4 µM
- TGI [4]: 84.4 µM
- TGI [5]: 61.5 µM
- TGI [6]: > 100 µM
- TGI [7]: > 10 µM
- TGI [8]: 64.4 µM
- TGI [9]: > 100 µM
- TGI [10]: > 100 µM
- TGI [11]: > 100 µM
- TGI [12]: 84.2 µM
- TGI [13]: > 100 µM
- TGI [14]: 96 µM
- TGI [15]: > 100 µM
- TGI [16]: > 100 µM
- TGI [17]: 45.6 µM
- TGI [18]: > 10 µM
- TGI [19]: > 100 µM
- TGI [20]: 34.1 µM
- TGI [21]: 47.1 µM
- TGI [22]: 80.9 µM
- TGI [23]: > 100 µM
- TGI [24]: > 100 µM
- TGI [25]: > 100 µM
- TGI [26]: > 100 µM
- TGI [27]: 69.6 µM
- TGI [28]: 75.5 µM
- TGI [29]: > 10 µM
- TGI [30]: > 100 µM
- TGI [31]: > 100 µM
- TGI [32]: 59.3 µM
- TGI [33]: > 100 µM
- TGI [34]: > 100 µM
- TGI [35]: 81.2 µM
- TGI [36]: 52.7 µM
- TGI [37]: > 100 µM
- TGI [38]: > 100 µM
- TGI [39]: > 100 µM
- TGI [40]: > 100 µM
- TGI [41]: 73.8 µM
- TGI [42]: 43.4 µM
- TGI [43]: 84.5 µM
- TGI [44]: 58.2 µM
- TGI [45]: 41.6 µM
- TGI [46]: 82 µM
- TGI [47]: > 100 µM
- TGI [48]: 73.3 µM
- TGI [49]: 33.7 µM
- TGI [50]: > 100 µM
- TGI [51]: > 100 µM
- TGI [52]: > 100 µM
- TGI [53]: 77.5 µM
- TGI [54]: > 100 µM
- TGI [55]: > 100 µM

Compound: CC12CCC(C1)C(C)(C)C2OC(=O)c1ccccc1N (stereo unspecified)
- TGI [1]: 30.8 µM
- TGI [2]: 38.5 µM
- TGI [3]: 33.7 µM
- TGI [4]: 31.2 µM
- TGI [5]: 29 µM
- TGI [6]: 29.2 µM
- TGI [7]: 40.5 µM
- TGI [8]: 22.7 µM
- TGI [10]: 30.3 µM
- TGI [11]: 27.9 µM
- TGI [12]: 29.5 µM
- TGI [13]: 31.5 µM
- TGI [14]: 32.1 µM
- TGI [15]: 29.6 µM
- TGI [16]: 38 µM
- TGI [17]: 33.8 µM
- TGI [18]: 3.96 µM
- TGI [19]: 29.9 µM
- TGI [20]: 29.2 µM
- TGI [21]: 29.7 µM
- TGI [22]: 32.6 µM
- TGI [23]: 31.2 µM
- TGI [24]: 29.1 µM
- TGI [25]: 33.3 µM
- TGI [26]: 32.8 µM
- TGI [27]: 25.7 µM
- TGI [28]: 30.8 µM
- TGI [29]: 25.8 µM
- TGI [30]: 30.7 µM
- TGI [31]: 34.3 µM
- TGI [32]: 16.9 µM
- TGI [33]: 31.9 µM
- TGI [34]: 28.6 µM
- TGI [36]: 33.7 µM
- TGI [37]: 31.9 µM
- TGI [38]: 32.4 µM
- TGI [39]: 30.2 µM
- TGI [40]: 31.8 µM
- TGI [41]: 30.2 µM
- TGI [56]: 33 µM
- TGI [42]: 25.1 µM
- TGI [43]: 35.1 µM
- TGI [44]: 29.8 µM
- TGI [45]: 26.6 µM
- TGI [46]: 31.7 µM
- TGI [47]: 35.6 µM
- TGI [48]: 31.6 µM
- TGI [49]: 31 µM
- TGI [50]: 33.5 µM
- TGI [57]: 35 µM
- TGI [51]: 29 µM
- TGI [52]: 27.3 µM
- TGI [53]: 32.1 µM
- TGI [54]: 31.6 µM
- TGI [58]: 24.4 µM
- TGI [55]: 31.7 µM
- TGI [59]: 28.6 µM

Compound: c1ccc2c(c1)nnn2C1CCCCO1 (stereo unspecified)
- TGI [1]: > 100 µM
- TGI [2]: > 100 µM
- TGI [3]: > 100 µM
- TGI [4]: > 100 µM
- TGI [5]: > 100 µM
- TGI [6]: > 100 µM
- TGI [7]: > 100 µM
- TGI [8]: > 100 µM
- TGI [9]: > 100 µM
- TGI [10]: > 100 µM
- TGI [11]: > 100 µM
- TGI [12]: > 100 µM
- TGI [13]: > 100 µM
- TGI [14]: > 100 µM
- TGI [15]: > 100 µM
- TGI [16]: > 100 µM
- TGI [17]: > 100 µM
- TGI [18]: > 100 µM
- TGI [19]: > 100 µM
- TGI [20]: > 100 µM
- TGI [21]: > 100 µM
- TGI [22]: > 100 µM
- TGI [23]: > 100 µM
- TGI [24]: > 100 µM
- TGI [25]: > 100 µM
- TGI [26]: > 100 µM
- TGI [27]: > 100 µM
- TGI [28]: > 100 µM
- TGI [29]: > 100 µM
- TGI [30]: > 100 µM
- TGI [31]: > 100 µM
- TGI [32]: > 100 µM
- TGI [33]: > 100 µM
- TGI [34]: > 100 µM
- TGI [35]: > 100 µM
- TGI [36]: > 100 µM
- TGI [37]: > 100 µM
- TGI [38]: > 100 µM
- TGI [39]: > 100 µM
- TGI [40]: > 100 µM
- TGI [41]: > 100 µM
- TGI [56]: > 100 µM
- TGI [42]: > 100 µM
- TGI [43]: > 100 µM
- TGI [44]: > 100 µM
- TGI [45]: > 100 µM
- TGI [46]: > 100 µM
- TGI [47]: > 100 µM
- TGI [48]: > 100 µM
- TGI [49]: > 100 µM
- TGI [50]: > 100 µM
- TGI [57]: > 100 µM
- TGI [51]: > 100 µM
- TGI [52]: > 100 µM
- TGI [53]: > 100 µM
- TGI [54]: > 100 µM
- TGI [58]: > 100 µM
- TGI [55]: > 100 µM
- TGI [59]: > 100 µM
